Data from patent publication US10100050B2 (CHIESI FARMACEUTICI S.P.A., priority 2015, dated 2018).

Experiments:
p38alpha = target: T1, p38alpha (Homo sapiens, UniProt Q16539); test: P38alpha enzyme inhibition assay (Alphascreen kinase activity assay); format: biochemical; conditions: IC50 classes; 2 hours preincubation at 25° C., 250 μM ATP; read-out: p38α inhibition
T1 construct: purchased Invitrogen PV3304
Experimental: P38alpha Enzyme Inhibition Assay
The inhibitory activity of compounds was determined using an Alphascreen® (Perkin Elmer) based kinase activity assay. Kinase reactions consisted of 25 mM HEPES pH 7.5, 10 mM MgCl2, 100 μM Na3VO4, 2 mM DTT, 0.05 mg/ml Tween […] (Invitrogen, PV3304), 1% DMSO and 0.3 μg/ml ATF-2 fusion protein (New England Biolabs, 9224). Compounds were incubated under these conditions for 2 hours, at 25° C., prior to the initiation of the kinase activity by the addition of the 250 μM ATP. Reaction volumes were 20 uL. After 1 hr at 25° C. reactions were stopped by the adding 10 uL of 25 mM HEPES pH 7.5 containing 62.5 mM EDTA, 0.05% Triton X-100, 10% BSA and 0.83 ng/uL anti-phospho-ATF2 antibody (Abcam, ab28812). Detection was performed by measuring luminescence following the addition of Alphascreen Donor beads (Perkin Elmer 6765300) and Protein A Alphascreen Acceptor beads (Perkin Elmer 6760137), both at a final concentration of 20 ug/ml. IC50 values were determined from concentration-response curves.

[1] = test system: Peripheral Blood Mononuclear Cells (PBMCs); test: LPS-stimulated PBMC TNFα release assay; format: cell-based; conditions: IC50 classes; human PBMC, LPS 10 ng/ml, 18 h; read-out: LPS-stimulated PBMC TNFα release inhibition
Experimental: 1-10 nM ‘+’; • <1 nM ‘++’ LPS-Stimulated PBMC TNFα Release Assay
Peripheral Blood Mononuclear Cells (PBMCs) were isolated from healthy human volunteer blood using a standard density gradient centrifugation technique. Citrated blood was placed onto Histopaque™ and centrifuged. The PBMCs were removed from the density gradient interface and washed in phosphate buffered saline (PBS). The PBMCs were suspended in RPMI 1640 medium (without serum), dispensed into a 96-well plate and incubated at 37° C. for 3 h in a humidified incubator. After incubation, the medium was replaced (with medium containing 1% foetal bovine serum) and the plate incubated at 37° C., for 1 h, in the presence of test compound or the appropriate vehicle. LPS (10 ng/ml), or an appropriate vehicle control, was then added to the cells and the plate returned to the incubator for 18 h. Cell-free supernatants were removed and assayed for TNFα levels using MSD plates on the Sector Imager 6000 (MesoScale).
A dose response curve to each test compound was performed and the effect of compound in each experiment was expressed as a percentage inhibition of the control TNFα release. Dose response curves were plotted and compound potency (IC50) was determined. Compounds were tested in at least three separate experiments.

T1 sequence (Q16539 whole entry): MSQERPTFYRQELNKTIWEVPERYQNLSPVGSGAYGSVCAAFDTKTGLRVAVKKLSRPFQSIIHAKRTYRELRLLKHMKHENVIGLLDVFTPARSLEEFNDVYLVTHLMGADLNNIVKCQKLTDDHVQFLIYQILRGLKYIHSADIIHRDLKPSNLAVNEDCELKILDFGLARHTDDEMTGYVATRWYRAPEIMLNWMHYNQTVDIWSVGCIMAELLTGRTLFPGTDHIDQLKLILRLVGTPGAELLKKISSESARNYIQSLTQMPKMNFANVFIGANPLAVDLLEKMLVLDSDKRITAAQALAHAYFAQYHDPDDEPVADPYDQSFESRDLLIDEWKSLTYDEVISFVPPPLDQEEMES

| Structure (SMILES) | IC50 (p38alpha) [nM] | IC50 [1] [nM] |
| --- | --- | --- |
| CN1CC(C)(C)C[C@H]1c1nnc2ccc(O[C@@H]3CC[C@H](NC(=O)Nc4cc(NS(C)(=O)=O)cc(C(C)(C)C)c4)c4ccccc43)cn12 [Example 26, N-[3-tert-Butyl-5-(3-{(1S,4R)-4-[3-((S)-1,4,4-trimethyl-pyrrolidin-2-yl)-[1,2,4]triazolo[4,3-a]pyridin-6-yloxy]-1,2,3,4-tetrahydro-naphthalenyl}-ureido)-phenyl]-methanesulfonamide] | 1 to 10 | 1 to 5 |
| COC(=O)c1cc(NC(=O)N[C@H]2CC[C@@H](Oc3ccc4nnc([C@@H]5CCCN5C)n4c3)c3ccccc32)cc(C(C)(C)C)c1 [Example 40, 3-tert-Butyl-5-(3-{(1S,4R)-4-[3((S)-1-methyl-pyrrolidin-2-yl)-[1,2,4]triazolo[4,3-a]pyridin-6-yloxy]-1,2,3,4-tetrahydro-naphthalen-1-yl}-ureido)-benzoic acid methyl ester] | < 1 | 1 to 5 |
| CN1CCC[C@@H](c2nnc3ccc(O[C@@H]4CC[C@H](NC(=O)Nc5cc(NS(C)(=O)=O)cc(C(C)(C)C)c5)c5ccccc54)cn23)C1 [Example 30, N-[3-tert-Butyl-5-(3-{(1S,4R)-4-[3-((R)-1-methyl-piperidin-3-yl)-[1,2,4]triazolo[4,3-a]pyridin-6-yloxy]-1,2,3,4-tetrahydro-naphthalen-1-yl}-ureido)-phenyl]-methanesulfonamide] | 1 to 10 | > 5 |
| CC(C)N1CCCC[C@H]1c1nnc2ccc(O[C@@H]3CC[C@H](NC(=O)Nc4cc(NS(C)(=O)=O)cc(C(C)(C)C)c4)c4ccccc43)cn12 [Example 23] | 1 to 10 | > 5 |
| CC(C)N1CCC[C@@]1(C)c1nnc2ccc(O[C@@H]3CC[C@H](NC(=O)Nc4cc(NS(C)(=O)=O)cc(C(C)(C)C)c4)c4ccccc43)cn12 [Example 28, N-[3-tert-Butyl-5-(3-{(1S,4R)-4-[3-((S)-1-isopropyl-2-methyl-pyrrolidin-2-yl)-[1,2,4]triazolo[4,3-a]pyridin-6-yloxy]-1,2,3,4-tetrahydro-naphthalen-1-yl}-ureido)-phenyl]-methanesulfonamide] | < 1 | 1 to 5 |

Second part, led by results:

| IC50 (p38alpha) [nM] | Structure (SMILES) | IC50 [1] [nM] |
| --- | --- | --- |
| < 1 | CC(C)(C)c1cc(NC(=O)N[C@H]2CC[C@@H](Oc3ccc4nnc([C@]5(C)CCCN5)n4c3)c3ccccc32)cc(NS(C)(=O)=O)c1 [Example 29, N-[3-tert-Butyl-5-(3-{(1S,4R)-4-[3-((S)-2-methyl-pyrrolidin-2-yl)-[1,2,4]triazolo[4,3-a]pyridin-6-yloxy]-1,2,3,4-tetrahydro-naphthalen-1-yl}-ureido)-phenyl]-methanesulfonamide] | 1 to 5 |
| < 1 | CC(C)(C)c1cc(NC(=O)N[C@H]2CC[C@@H](Oc3ccc4nnc([C@]5(C)CCCN5CCO)n4c3)c3ccccc32)cc(NS(C)(=O)=O)c1 [Example 32, N-{3-tert-Butyl-5-[3-((1S,4R)-4-{3-[(S)-1-(2-hydroxy-ethyl)-2-methyl-pyrrolidin-2-yl]-[1,2,4]triazolo[4,3-a]pyridin-6-yloxy}-1,2,3,4-tetrahydro-naphthalen-1-yl)-ureido]-phenyl}-methanesulfonamide] | 1 to 5 |
| < 1 | CN(C)C(C)(C)c1nnc2ccc(O[C@@H]3CC[C@H](NC(=O)Nc4cc(N)cc(C(C)(C)C)c4)c4ccccc43)cn12 [Example 34] | < 1 |
| < 1 | CN1CCC[C@@]1(C)c1nnc2ccc(O[C@@H]3CC[C@H](NC(=O)Nc4cc(N5CCOCC5)cc(C(C)(C)C)c4)c4ccccc43)cn12 [Example 48, 1-(3-tert-Butyl-5-morpholin-4-yl-phenyl)-3-{(1S,4R)-4-[3-((S)-1,2-dimethyl-pyrrolidin-2-yl)-[1,2,4]triazolo[4,3-a]pyridin-6-yloxy]-1,2,3,4-tetrahydro-naphthalen-1-yl}-urea] | < 1 |
| < 1 | CN1CCC[C@@H]1c1nnc2ccc(O[C@@H]3CC[C@H](NC(=O)Nc4cc(NS(C)(=O)=O)cc(C(C)(C)C)c4)c4ccccc43)cn12 [Example 22] | 1 to 5 |
